Experimental data published in patent publication US8722683B2, “Benzodioxole piperazine compounds” (Hoffmann LA-Roche Inc., priority 2011, dated 2014).

Columns and labels:
D3 receptor = D3 receptor (Homo sapiens (Human), UniProt P35462); experiment: Radioligand binding ([3H]-spiperone) to cloned D3 receptor expressed in HEK-293 EBNA cells; settings: HEK293 EBNA membranes, 0.5 nM [3H]-spiperone
Method: (§1) HEK293 EBNA cells were transiently transfected with expression plasmids encoding for the human D2 or D3 or for the human 5-HT2A receptor, respectively. The cells were harvested 48 h post-transfection, washed three times with cold PBS and stored at −80° C. prior to use. The pellet was suspended in cold 50 mM Tris-HCl buffer containing 10 mM EDTA (pH 7.4) and was homogenized with a Polytron (Kinematica AG, Basel, Switzerland) for 20-30 sec at 12.000 rpm. After centrifugation at 48.000×g for 30 min at 4° C., the pellet was resuspended in cold 10 mM Tris-HCl buffer containing 0.1 mM EDTA (pH 7.4), homogenized, and centrifuged as above. This pellet was further resuspended in a smaller volume of ice cold 10 mM Tris-HCl buffer containing 0.1 mM EDTA (pH 7.4) and homogenized with a Polytron for 20-30 sec at 12.000 rpm. The protein content of this homogenate was determined with the Bio-Rad (Bradford) Protein Assay (Biorad Laboratories GmbH, München, Germany) according to the instructions of the manufacturer using gamma globulin as the standard. This homogenate was stored at −80° C. in aliquots and thawed immediately prior to use.
(§2) Radioligand Binding Assay
(§3) Aliquots of membrane preparations were thawed at RT, resupended in assay buffer (D2, D3: 50 mM Tris-HCl, 120 mM NaCl, 5 mM MgCl2, 1 mM EDTA, 5 mM KCl, 1.5 mM CaCl2, pH=7.4; 5-HT2A: 50 mM Tris-HCl, 10 mM MgCl2, 1 mM EGTA, pH=7.4), homogenized with a Polytron for 20-30 sec at 12.000 rpm and adjusted to a final concentration of approximately 7.5 μg protein/well (D2, D3) and 15 μg protein/well (5-HT2A), respectively.
The binding affinity (Ki) of the compounds was determined using radioligand binding. […] At the end of the incubation, the reaction mixtures were filtered on to unifilter 96-well white microplates with bonded GF/C filters (Packard BioScience, Zürich, Switzerland; preincubated for 1 h in 0.1% polyethylenimine (PEI) in assay buffer) with a Filtermate 196 harvester (Packard BioScience) and washed 3 times with cold assay buffer. The nonspecific binding was determined with equally composed reaction mixtures in the presence of 10 μM unlabelled spiperone. Per well 45 μl of Microscint 40 (Perkin Elmer, Schwerzenbach, Switzerland) was added, plates for sealed, shaken for 20 min and counted for 3 min on a Topcount Microplate Scintillation Counter (Canberra Packard SA, Zürich, Switzerland) with quenching correction.
(§4) The CPM value for each duplicate of a concentration of competing compound was averaged (y1), then the % specific binding was calculated according to the equation (((y1−non-specific)/(total binding−non-specific))×100). Graphs were plotted with the % specific binding using XLfit, a curve fitting program that iteratively plots the data using Levenberg-Marquardt algorithm. The single site competition analysis equation used was y=A+((B−A)/(1+((x/C)D))), where y is the % specific binding, A is the minimum y, B is the maximum y, C is the IC50, x is the log 10 of the concentration of the competing compound and D is the slope of the curve (the Hill Coefficient). […] The affinity constant (Ki) was calculated using the Cheng-Prusoff equation Ki=(IC50/1+([L]/Kd), where [L] is the concentration of radioligand and Kd is the dissociation constant of the radioligand at the receptor as determined by the saturation isotherm.

D2 receptor = D2 receptor (Homo sapiens (Human), UniProt P14416); experiment: Radioligand binding ([3H]-spiperone) to cloned D2 receptor expressed in HEK-293 EBNA cells; settings: HEK293 EBNA membranes, 0.7 nM [3H]-spiperone
Chain of D2 receptor (P14416 whole entry): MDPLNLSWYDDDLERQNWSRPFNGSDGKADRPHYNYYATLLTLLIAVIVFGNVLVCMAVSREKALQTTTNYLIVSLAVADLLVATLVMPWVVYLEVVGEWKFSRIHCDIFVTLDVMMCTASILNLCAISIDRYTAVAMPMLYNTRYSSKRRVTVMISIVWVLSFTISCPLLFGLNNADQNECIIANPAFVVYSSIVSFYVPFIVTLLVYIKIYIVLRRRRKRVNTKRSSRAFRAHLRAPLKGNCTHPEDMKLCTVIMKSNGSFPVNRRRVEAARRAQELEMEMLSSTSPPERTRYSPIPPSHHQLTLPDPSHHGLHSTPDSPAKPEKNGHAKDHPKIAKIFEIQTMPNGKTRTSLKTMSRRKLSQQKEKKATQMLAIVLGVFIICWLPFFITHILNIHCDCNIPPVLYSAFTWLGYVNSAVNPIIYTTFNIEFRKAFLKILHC
Method: as §1, §2, §3
The binding affinity (Ki) of the compounds was determined using radioligand binding. […] The nonspecific binding was determined with equally composed reaction mixtures in the presence of 10 μM unlabelled spiperone. Per well 45 μl of Microscint 40 (Perkin Elmer, Schwerzenbach, Switzerland) was added, plates for sealed, shaken for 20 min and counted for 3 min on a Topcount Microplate Scintillation Counter (Canberra Packard SA, Zürich, Switzerland) with quenching correction.
as §4

Chain of D3 receptor (P35462 whole entry): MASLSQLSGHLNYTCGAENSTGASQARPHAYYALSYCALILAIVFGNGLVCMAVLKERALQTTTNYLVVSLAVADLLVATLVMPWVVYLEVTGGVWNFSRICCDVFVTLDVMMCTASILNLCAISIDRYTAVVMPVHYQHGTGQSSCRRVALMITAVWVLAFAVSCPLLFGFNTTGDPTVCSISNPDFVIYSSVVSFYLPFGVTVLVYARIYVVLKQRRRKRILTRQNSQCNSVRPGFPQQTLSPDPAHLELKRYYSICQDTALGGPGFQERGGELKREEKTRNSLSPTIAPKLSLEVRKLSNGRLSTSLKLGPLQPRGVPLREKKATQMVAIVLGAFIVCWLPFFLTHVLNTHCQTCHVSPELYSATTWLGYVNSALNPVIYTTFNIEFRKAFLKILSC

Compound	Ki (D3 receptor)	Ki (D2 receptor)
CO[C@@H]1CC[C@@H](CC(=O)N[C@H]2CC[C@H](CCN3CCN(c4cccc5c4OCO5)CC3)CC2)C1 [Example 23, Trans-N-{4-[2-(4-Benzo[1,3]dioxol-4-yl-piperazin-1-yl)-ethyl]-cyclohexyl}-2-((1R,3R)-3-methoxy-cyclopentyl)-acetamide]	0.0025 µM	0.183 µM
CC(C)(O)C(=O)N[C@H]1CC[C@H](CCN2CCN(c3cccc4c3OCO4)CC2)CC1 [Example 24, Trans-N-{4-[2-(4-Benzo[1,3]dioxol-4-yl-piperazin-1-yl)-ethyl]-cyclohexyl}-2-hydroxy-2-methyl-propionamide]	0.0088 µM	0.181 µM
O=C(CC1(O)CCC1)N[C@H]1CC[C@H](CCN2CCN(c3cccc4c3OCO4)CC2)CC1 [Example 28, Trans-N-{4-[2-(4-Benzo[1,3]dioxol-4-yl-piperazin-1-yl)-ethyl]-cyclohexyl}-2-(1-hydroxy-cyclobutyl)-acetamide]	0.0014 µM	0.0946 µM
O=C(N[C@H]1CC[C@H](CCN2CCN(c3cccc4c3OCO4)CC2)CC1)C1(O)CCCCC1 [Example 37, 1-Hydroxy-cyclohexanecarboxylic acid-trans-N-{4-[2-(4-benzo[1,3]dioxol-4-yl-piperazin-1-yl)-ethyl]-cyclohexyl}-amide]	0.0157 µM	0.175 µM
COC1(C(=O)N[C@H]2CC[C@H](CCN3CCN(c4cccc5c4OCO5)CC3)CC2)CCCCC1 [Example 41, 1-Methoxy-cyclohexanecarboxylic acid-Trans-N-{4-[2-(4-benzo[1,3]dioxol-4-yl-piperazin-1-yl)-ethyl]-cyclohexyl}-amide]	0.0125 µM	0.251 µM
C[C@@H](O)C(=O)N[C@H]1CC[C@H](CCN2CCN(c3cccc4c3OCO4)CC2)CC1 [Example 42, (R)-Trans-N-{4-[2-(4-Benzo[1,3]dioxol-4-yl-piperazin-1-yl)-ethyl]-cyclohexyl}-2-hydroxy-propionamide]	0.00217 µM	0.0898 µM
O=C(N[C@H]1CC[C@H](CCN2CCN(c3cccc4c3OCO4)CC2)CC1)c1ccc(F)cc1 [Example 46, Trans-N-{4-[2-(4-Benzo[1,3]dioxol-4-yl-piperazin-1-yl)-ethyl]-cyclohexyl}-4-fluoro-benzamide]	0.00379 µM	0.0825 µM
O=C(N[C@H]1CC[C@H](CCN2CCN(c3cccc4c3OCO4)CC2)CC1)c1cccnc1 [Example 48, Trans-N-{4-[2-(4-Benzo[1,3]dioxol-4-yl-piperazin-1-yl)-ethyl]-cyclohexyl}-nicotinamide]	0.00179 µM	0.0882 µM
O=C(N[C@H]1CC[C@H](CCN2CCN(c3cccc4c3OCO4)CC2)CC1)C1COc2ccccc2C1 (stereo partly drawn) [Example 50, Chroman-3-carboxylic acid-trans-N-{4-[2-(4-benzo[1,3]dioxol-4-yl-piperazin-1-yl)-ethyl]-cyclohexyl}-amide]	0.00087 µM	0.572 µM
O=C(N[C@H]1CC[C@H](CCN2CCN(c3cccc4c3OCO4)CC2)CC1)C1CCC1 [Example 54, Cyclobutanecarboxylic acid-trans-N-{4-[2-(4-benzo[1,3]dioxol-4-yl-piperazin-1-yl)-ethyl]-cyclohexyl}-amide]	0.00197 µM	0.0911 µM
CS(=O)(=O)CC(=O)N[C@H]1CC[C@H](CCN2CCN(c3cccc4c3OCO4)CC2)CC1 [Example 55, Trans-N-{4-[2-(4-Benzo[1,3]dioxol-4-yl-piperazin-1-yl)-ethyl]-cyclohexyl}-2-methanesulfonyl-acetamide]	0.00145 µM	0.0954 µM
N#Cc1ccc(C(=O)N[C@H]2CC[C@H](CCN3CCN(c4cccc5c4OCO5)CC3)CC2)cc1 [Example 59, Trans-N-{4-[2-(4-Benzo[1,3]dioxol-4-yl-piperazin-1-yl)-ethyl]-cyclohexyl}-4-cyano-benzamide]	0.00355 µM	0.101 µM

The remaining compounds from weak to strong by Ki (D3 receptor), led by results:

Ki (D3 receptor)	Ki (D2 receptor)	Compound
0.0274 µM	0.117 µM	COC(C)(C)C(=O)N[C@H]1CC[C@H](CCN2CCN(c3cccc4c3OCO4)CC2)CC1 [Example 63, Trans-N-{4-[2-(4-Benzo[1,3]dioxol-4-yl-piperazin-1-yl)-ethyl]-cyclohexyl}-2-methoxy-2-methyl-propionamide]
0.0147 µM	0.0895 µM	CO[C@@H](C(=O)N[C@H]1CC[C@H](CCN2CCN(c3cccc4c3OCO4)CC2)CC1)C(C)C [Example 64, (R)-trans-N-{4-[2-(4-Benzo[1,3]dioxol-4-yl-piperazin-1-yl)-ethyl]-cyclohexyl}-2-methoxy-3-methyl-butyramide]
0.011 µM	0.124 µM	O=C(N[C@H]1CC[C@H](CCN2CCN(c3cccc4c3OCO4)CC2)CC1)C1(O)CCCC1 [Example 36, 1-Hydroxy-cyclopentanecarboxylic acid-trans-N-{4-[2-(4-benzo[1,3]dioxol-4-yl-piperazin-1-yl)-ethyl]-cyclohexyl}-amide]
0.0031 µM	0.145 µM	CS(=O)(=O)N[C@H]1CC[C@H](CCN2CCN(c3cccc4c3OCO4)CC2)CC1 [Example 34, Trans-N-{4-[2-(4-Benzo[1,3]dioxol-4-yl-piperazin-1-yl)-ethyl]-cyclohexyl}-methanesulfonamide]
0.00298 µM	0.0811 µM	O=C(N[C@H]1CC[C@H](CCN2CCN(c3cccc4c3OCO4)CC2)CC1)C1CC(Cl)C1 (stereo partly drawn) [Example 60, 3-Chloro-cyclobutanecarboxylic acid-trans-N-{4-[2-(4-benzo[1,3]dioxol-4-yl-piperazin-1-yl)-ethyl]-cyclohexyl}-amide]
0.0024 µM	0.509 µM	O=C(N[C@H]1CC[C@H](CCN2CCN(c3cccc4c3OCO4)CC2)CC1)c1ccnc2ccccc12 [Example 47, Quinoline-4-carboxylic acid-trans-N-{4-[2-(4-benzo[1,3]dioxol-4-yl-piperazin-1-yl)-ethyl]-cyclohexyl}-amide]
0.00211 µM	0.681 µM	O=C(Cc1ccc2c(c1)OCO2)N[C@H]1CC[C@H](CCN2CCN(c3cccc4c3OCO4)CC2)CC1 [Example 51, 2-Benzo[1,3]dioxol-5-yl-trans-N-{4-[2-(4-benzo[1,3]dioxol-4-yl-piperazin-1-yl)-ethyl]-cyclohexyl}-acetamide]
0.00209 µM	0.139 µM	O=C(CC1CCOCC1)N[C@H]1CC[C@H](CCN2CCN(c3cccc4c3OCO4)CC2)CC1 [Example 53, N-trans-{4-[2-(4-Benzo[1,3]dioxol-4-yl-piperazin-1-yl)-ethyl]-cyclohexyl}-2-(tetrahydro-pyran-4-yl)-acetamide]
0.00188 µM	0.0615 µM	O=C(N[C@H]1CC[C@H](CCN2CCN(c3cccc4c3OCO4)CC2)CC1)C1(O)CC1 [Example 29, Trans-1-Hydroxy-cyclopropanecarboxylic acid {4-[2-(4-benzo[1,3]dioxol-4-yl-piperazin-1-yl)-ethyl]-cyclohexyl}-amide]
0.00158 µM	0.144 µM	CCCC(=O)N[C@H]1CC[C@H](CCN2CCN(c3cccc4c3OCO4)CC2)CC1 [Example 19, Trans-N-{4-[2-(4-Benzo[1,3]dioxol-4-yl-piperazin-1-yl)-ethyl]-cyclohexyl}-butyramide]
0.00156 µM	0.0768 µM	CC(C)(O)CC(=O)N[C@H]1CC[C@H](CCN2CCN(c3cccc4c3OCO4)CC2)CC1 [Example 27, Trans-N-{4-[2-(4-Benzo[1,3]dioxol-4-yl-piperazin-1-yl)-ethyl]-cyclohexyl}-3-hydroxy-3-methyl-butyramide]
